In the CheMixHub ionic liquid set:
± gives the uncertainty stated by the source.

Assay: xn = mol fraction of the nth substance listed
Settings: 100 kPa, x1 = 0.0001802

CCCC[n+]1ccn(C)c1.[Cl-] + O + CCCCCCCCCCCCCCCC[N+](C)(C)C.[Br-]
electrical conductivity [S/m]
Settings	298 K	303 K	308 K	313 K	318 K
x3 = 8.8e-07	0.095 ± 0.06	0.094 ± 0.06	0.096 ± 0.06	0.101 ± 0.06	0.101 ± 0.06
x3 = 1.79e-06	0.096 ± 0.06	0.095 ± 0.06	0.097 ± 0.06	0.101 ± 0.06	0.101 ± 0.06
x3 = 2.67e-06	0.097 ± 0.06	0.095 ± 0.06	0.097 ± 0.06	0.102 ± 0.06	0.102 ± 0.06
x3 = 3.56e-06	0.097 ± 0.06	0.096 ± 0.06	0.098 ± 0.06	0.102 ± 0.06	0.102 ± 0.06
x3 = 4.42e-06	0.098 ± 0.06	0.096 ± 0.06	0.098 ± 0.06	0.103 ± 0.06	0.102 ± 0.06
x3 = 5.31e-06	0.098 ± 0.06	0.096 ± 0.06	0.098 ± 0.06	0.103 ± 0.06	0.103 ± 0.06
x3 = 6.17e-06	0.098 ± 0.06	0.097 ± 0.06	0.099 ± 0.06	0.104 ± 0.06	0.103 ± 0.06
x3 = 7.02e-06	0.098 ± 0.06	0.097 ± 0.06	0.099 ± 0.06	0.104 ± 0.06	0.103 ± 0.06
x3 = 7.87e-06	0.098 ± 0.06	0.097 ± 0.06	0.099 ± 0.06	0.104 ± 0.06	0.103 ± 0.06
x3 = 8.72e-06	0.098 ± 0.06	0.097 ± 0.06	0.1 ± 0.06	0.104 ± 0.06	0.104 ± 0.06
x3 = 9.57e-06	0.099 ± 0.06	–	–	–	–
x3 = 1.04e-05	0.099 ± 0.06	0.098 ± 0.06	0.1 ± 0.06	0.105 ± 0.06	0.104 ± 0.06
x3 = 1.124e-05	0.099 ± 0.06	–	–	–	–
x3 = 1.206e-05	0.099 ± 0.06	0.098 ± 0.06	0.1 ± 0.06	0.105 ± 0.06	0.104 ± 0.06
x3 = 1.289e-05	0.099 ± 0.06	–	–	–	–
x3 = 1.37e-05	0.099 ± 0.06	0.098 ± 0.06	0.1 ± 0.06	0.105 ± 0.06	0.104 ± 0.06
x3 = 1.451e-05	0.099 ± 0.06	–	–	–	–
x3 = 1.532e-05	0.1 ± 0.06	0.099 ± 0.06	0.101 ± 0.06	0.105 ± 0.06	0.105 ± 0.06
x3 = 1.612e-05	0.1 ± 0.06	–	–	–	–
x3 = 1.691e-05	0.1 ± 0.06	0.099 ± 0.06	0.101 ± 0.06	0.106 ± 0.06	0.105 ± 0.06
x3 = 1.77e-05	0.1 ± 0.06	–	–	–	–
x3 = 1.848e-05	0.1 ± 0.06	0.099 ± 0.06	0.101 ± 0.06	0.106 ± 0.06	0.105 ± 0.06
x3 = 1.928e-05	0.1 ± 0.06	–	–	–	–
x3 = 2.005e-05	0.1 ± 0.06	0.099 ± 0.06	0.101 ± 0.06	0.106 ± 0.06	0.105 ± 0.06
x3 = 2.081e-05	0.1 ± 0.06	–	–	–	–
x3 = 2.159e-05	0.1 ± 0.06	0.1 ± 0.06	0.102 ± 0.06	0.106 ± 0.06	0.105 ± 0.06
x3 = 2.234e-05	0.101 ± 0.06	–	–	–	–
x3 = 2.31e-05	0.101 ± 0.06	0.1 ± 0.06	0.102 ± 0.06	0.107 ± 0.06	0.106 ± 0.06
x3 = 2.386e-05	0.101 ± 0.06	–	–	–	–
x3 = 2.46e-05	0.101 ± 0.06	0.1 ± 0.06	0.102 ± 0.06	0.107 ± 0.06	0.106 ± 0.06
x3 = 2.534e-05	0.101 ± 0.06	–	–	–	–
x3 = 2.608e-05	–	0.1 ± 0.06	0.102 ± 0.06	0.107 ± 0.06	0.106 ± 0.06
x3 = 2.754e-05	–	0.101 ± 0.06	0.103 ± 0.06	0.107 ± 0.06	0.107 ± 0.06
x3 = 2.9e-05	–	0.101 ± 0.06	0.103 ± 0.06	0.108 ± 0.06	0.107 ± 0.06
x3 = 3.043e-05	–	0.101 ± 0.06	0.103 ± 0.06	0.108 ± 0.06	0.107 ± 0.06
x3 = 3.184e-05	–	0.101 ± 0.06	0.103 ± 0.06	0.108 ± 0.06	0.107 ± 0.06
x3 = 3.324e-05	–	0.101 ± 0.06	0.103 ± 0.06	0.108 ± 0.06	0.107 ± 0.06
x3 = 3.462e-05	–	0.101 ± 0.06	0.104 ± 0.06	0.109 ± 0.06	0.108 ± 0.06
x3 = 3.599e-05	–	0.102 ± 0.06	0.104 ± 0.06	0.109 ± 0.06	0.108 ± 0.06
x3 = 3.732e-05	–	0.102 ± 0.06	0.104 ± 0.06	0.109 ± 0.06	0.108 ± 0.06
x3 = 3.866e-05	–	0.102 ± 0.06	0.104 ± 0.06	0.109 ± 0.06	0.108 ± 0.06
x3 = 3.998e-05	–	0.102 ± 0.06	0.105 ± 0.06	0.11 ± 0.06	0.109 ± 0.06
